Data published in PubChem BioAssay (NCI).
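Five compound concentrations were applied to cells in 96-well plates for 48 hours; endpoints were derived by simple linear interpolation of the resulting dose-response curve. The concentration for 50% growth inhibition is given as GI50. TGI: total growth inhibition.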

Columns and labels:
Assay in all cases: NCI-60 cell line screen, 48 h
[1] = tested on: DU-145 prostate
[2] = tested on: HS 578T breast
[3] = tested on: M14 melanoma
[4] = tested on: MOLT-4 leukemia
[5] = tested on: NCI/ADR-RES ovarian
[6] = tested on: OVCAR-4 ovarian
[7] = tested on: OVCAR-8 ovarian
[8] = tested on: RXF 393 renal
[9] = tested on: SW-620 colon
[10] = tested on: T-47D breast

Row | Structure (SMILES) | TGI [1] | TGI [2] | TGI [3] | TGI [4] | TGI [5] | TGI [6] | TGI [7] | TGI [8] | TGI [9] | TGI [10] | GI50 [1] | GI50 [2] | GI50 [3] | GI50 [4] | GI50 [5] | GI50 [6] | GI50 [7] | GI50 [8]
1 | C=CCOc1ccccc1N=N/C(C#N)=N\Nc1ccccc1OCC=C | > 100 µM | > 100 µM | > 100 µM | > 100 µM | > 100 µM | > 100 µM | > 100 µM | > 100 µM | > 100 µM | > 100 µM |  |  |  |  |  |  |  | 
2 | O=C1C(F)=CC(COC(c2ccccc2)(c2ccccc2)c2ccccc2)OC1n1cc(F)c(=O)[nH]c1=O (centres undefined) | > 34.2 µM | > 45 µM | 5.03 µM | 4.81 µM | 8.31 µM | 14.4 µM | 7 µM | 4.11 µM | 4.26 µM | > 28.6 µM |  |  |  |  |  |  |  | 
3 | c1ccc(-c2sc(-c3cccs3)cc2Cc2cccs2)cc1 | > 10 µM | > 10 µM | > 10 µM | > 10 µM | > 10 µM | > 10 µM | > 10 µM | > 10 µM | > 10 µM | > 10 µM |  |  |  |  |  |  |  | 
4 | CCOC(=O)Nc1c(C#N)[n+]([O-])c2cc(Cl)c(Cl)cc2[n+]1[O-] | > 100 µM | > 100 µM | 38.9 µM | 28.7 µM | 52.2 µM | 29.4 µM | 37.2 µM | 33 µM | 56.5 µM | 54.2 µM |  |  |  |  |  |  |  | 
5 | O=[N+]([O-])/C(C(Cl)=C(Cl)Cl)=C1\NCCO1 | > 100 µM | 90.5 µM | > 100 µM | > 100 µM | > 100 µM | > 100 µM | > 100 µM | > 100 µM |  | > 100 µM |  |  |  |  |  |  |  | 
6 | N#Cc1c(SCc2ccccc2)nc(-c2ccccc2)[nH]c1=S | > 100 µM | 92 µM | 89.8 µM | 85.2 µM | 67.4 µM | > 100 µM | 76.7 µM | 44.9 µM | 60 µM | 80.2 µM |  |  |  |  |  |  |  | 
7 | C/C(=N/NC(=S)Nc1ccccc1Cl)c1cccc(/C(C)=N\NC(=S)Nc2ccccc2Cl)n1 | > 100 µM | > 100 µM | > 100 µM | > 100 µM | > 100 µM | > 100 µM | 81.8 µM | > 100 µM | > 100 µM | > 100 µM |  |  |  |  |  |  |  | 
8 | COc1cc(OC)c2c(O)c3c(cc2c1)CC(C)(C)CC3=O | > 100 µM | > 100 µM | > 100 µM | > 100 µM | > 100 µM | > 100 µM | > 100 µM | > 100 µM | > 100 µM | > 100 µM |  |  |  |  |  |  |  | 
9 | CC(C)[C@@H]1CC[C@@H](C)C[C@H]1OC(=O)/C=C1/C2C=CC(O2)C1C(=O)O[C@@H]1C[C@H](C)CC[C@H]1C(C)C (some centres undefined) | > 100 µM | > 100 µM | > 100 µM | > 100 µM | > 100 µM | > 100 µM | > 100 µM | > 100 µM | > 100 µM | > 100 µM |  |  |  |  |  |  |  | 
10 | O=C1C(NCCc2ccc(O)c(O)c2)=CC(=O)c2ncccc21 | 24 µM | 45.2 µM | 40.5 µM | 34.6 µM | 25.1 µM | 50.9 µM | 57.3 µM | 28.4 µM | 32.3 µM | 65.3 µM |  |  |  |  |  |  |  | 
11 | Clc1ccc(Cc2nc3ccc(CCN4CCN(c5ccccc5)CC4)cc3[nH]2)cc1 | 44 µM | 47.3 µM | 19.2 µM | 40.6 µM | 51.6 µM | 37.3 µM | 36.3 µM | 19.1 µM | > 100 µM | 33.6 µM |  |  |  |  |  |  |  | 
12 | COc1ccc2[nH]c(Cl)c(/C=C3/C(=O)Nc4cc(C)c(OC)cc43)c2c1 | 29.4 µM | 20.9 µM | 14.2 µM | > 100 µM | 6.47 µM |  | 25.7 µM | 27.9 µM | 18.1 µM | 30.4 µM |  |  |  |  |  |  |  | 
13 | CC(C)=CC(=O)O[C@H]1C(=O)O[C@@H]2C[C@H]3[C@H](C)C(=O)C(O[C@@H]4O[C@H](CO)[C@@H](O)[C@H](O)[C@H]4O)=C[C@]3(C)[C@H]3[C@@H](O)[C@H](O)[C@]4(C(=O)O)OC[C@]32[C@@H]14 | > 100 µM | > 100 µM | > 100 µM | > 100 µM | > 100 µM | > 100 µM | > 100 µM | 73.1 µM | > 100 µM | > 100 µM | > 100 µM | > 100 µM | 32.1 µM | 22.4 µM | > 100 µM | 25.2 µM | > 100 µM | 25.4 µM
14 | Cc1c(C(=O)N2CCN(c3ccc([N+](=O)[O-])cc3)CC2)[n+](=O)c2cc(Cl)c(Cl)cc2n1[O-] | 43.9 µM | 93.6 µM | > 100 µM | > 100 µM | 32.7 µM | 29.5 µM | 33 µM | 27.5 µM | > 100 µM | 45 µM |  |  |  |  |  |  |  | 
15 | CC(=O)N1CCc2c([nH]c3ccc(Br)cc23)C1c1ccccc1 (centres undefined) | > 10 µM | > 10 µM | > 10 µM | > 10 µM | > 10 µM | > 10 µM | > 10 µM | > 10 µM | > 10 µM | > 10 µM |  |  |  |  |  |  |  | 
16 | CCOC(=O)N1CCN(c2ccc3c(C)cc(C)nc3n2)CC1 | > 100 µM | > 100 µM | > 100 µM | > 100 µM | > 100 µM | > 100 µM | > 100 µM | > 100 µM | > 100 µM | > 100 µM |  |  |  |  |  |  |  | 
17 | Clc1cc2c(c(CSC3=NCN(CC4CC4)CN3)c1)OCOC2 | > 100 µM | > 100 µM | 27.9 µM | 64 µM | 72.9 µM | > 100 µM | > 100 µM | 36.9 µM | 65.1 µM | 62.2 µM |  |  |  |  |  |  |  | 
18 | CN(C)c1ccc(/C=C2\N=C(NN)NC2=O)cc1 | > 100 µM | > 100 µM | > 100 µM | > 100 µM | > 100 µM | > 100 µM | > 100 µM | > 100 µM | > 100 µM | > 100 µM |  |  |  |  |  |  |  | 
19 | Cc1ccc(OCC2OC(n3cnc4nc(Cl)nc(Cl)c43)CC2Oc2ccc(C)cc2)cc1 (centres undefined) | 27.2 µM | 54.6 µM | 20.5 µM | 5.76 µM | 37.8 µM | 56.1 µM | 59.5 µM | 15.7 µM | 28 µM | 30.7 µM |  |  |  |  |  |  |  | 
20 | ClC(Cl)(Cl)C1=N[C@H]2[C@H](Br)[C@@H]3O[C@@H](c4ccccc4)[C@H](c4ccccc4)O[C@@H]3[C@H]2O1 | 73.7 µM | 63.7 µM | 50.3 µM | 45.7 µM | 65.2 µM | 43.8 µM | 33.3 µM | 45.4 µM | 44.8 µM | > 100 µM |  |  |  |  |  |  |  | 
21 | CCOC(=O)c1c(Br)c(-c2ccc(Br)cc2)c(Br)n1C | > 100 µM | > 100 µM | 63.3 µM | 37.6 µM | 87.5 µM | > 100 µM | 87.1 µM | 34.2 µM | > 100 µM | > 100 µM |  |  |  |  | 21.2 µM |  |  | 
22 | CC(C)CCC[C@@H](C)[C@H]1CCC2C3CC=C4C[C@@H](Oc5c6ccccc6nc6ccccc56)CCC4C3CCC21 (some centres undefined) | > 50 µM | > 50 µM | > 50 µM |  | > 50 µM | > 50 µM | > 50 µM | > 50 µM | > 50 µM | > 50 µM |  |  |  |  |  |  |  | 
23 | COC(=O)C(CCc1ccccc1I)C1=CCC2(CC1)OCCO2 (centres undefined) | > 100 µM | > 100 µM | > 100 µM | > 100 µM | > 100 µM | > 100 µM | > 100 µM | 67.2 µM | > 100 µM | 71.3 µM |  |  |  |  |  |  |  | 
24 | COC1=C(N=[N+]=[N-])C(=O)c2ncccc2C1=O | 35.1 µM | 48.6 µM | 8.66 µM | 2.86 µM | 25.6 µM | 5.7 µM | 7.56 µM | 11.9 µM | 4.24 µM | 3.85 µM |  |  |  |  |  |  |  | 
25 | CCOc1cc(NC(C)=O)ccc1C(=O)NN1C(=O)C(Oc2ccccc2)C1c1ccccc1 (centres undefined) | > 100 µM | > 100 µM |  | 20.4 µM | > 100 µM | > 100 µM | > 100 µM | > 100 µM | > 100 µM | > 100 µM |  |  |  |  |  |  |  | 
26 | CN1C(=S)C(c2ccccc2)Sc2ccccc21 (centres undefined) | > 100 µM | > 100 µM | > 100 µM | > 100 µM | > 100 µM | > 100 µM | > 100 µM | > 100 µM |  | > 100 µM |  |  |  |  |  |  |  | 
27 | CCOC(=O)c1cc(C(=O)c2ccccc2)n2nc(-c3ccc(Cl)cc3)ccc12 | 85.2 µM | 41.5 µM | 90.7 µM | > 100 µM | 81.8 µM | 37.2 µM |  | 32.7 µM | > 100 µM | 92.3 µM |  |  |  |  |  |  |  | 
28 | O=C(NCCC(F)(F)C(F)(F)C(F)(F)C(F)(F)F)NC1OC(CO)C(O)C(O)C1O (centres undefined) | > 100 µM | > 100 µM | > 100 µM | > 100 µM | > 100 µM | > 100 µM |  | > 100 µM | > 100 µM | > 100 µM |  |  |  |  |  |  |  | 
29 | COc1ccc(S(=O)(=O)O)cc1-n1nc(C(=O)Nc2ccccc2)n[n+]1-c1cc(S(=O)(=O)[O-])ccc1OC | > 100 µM | > 100 µM | > 100 µM | > 100 µM | > 100 µM | > 100 µM |  | > 100 µM | > 100 µM | > 100 µM |  |  |  |  |  |  |  | 
30 | O=c1c(SSc2coc3cc(F)ccc3c2=O)coc2cc(F)ccc12 | > 100 µM | 68 µM |  | 69.6 µM | 78.8 µM |  | > 100 µM | > 100 µM | 43 µM | 46.6 µM |  |  |  |  |  |  |  | 
